Measured values from patent publication US6429208B1, “Methods and compositions for restoring impaired cellular immune function” (Regents of the University of California, priority 1992, dated 2002).

How the values were obtained:
[1] = system: PBMC from HIV seropositive subjects; assay: Proliferative response to Candida albicans, PBMC from HIV seropositive subjects; assay type: cell-based, human
Protocol: (§1) Proliferative assays were done in triplicates of 50,000 PBMC in 200 μL RPMI with 10% FCS and 8 μg/ml of Candida albicans. ddAdo was added in two-fold dilutions; tritiated thymidine was added at day 5 and cells were harvested at day 6. Concentrations of ddAdo from 12.5 to 50 ng/ml gave the highest responses. […] Ratio 1:12 gave 48% (±12) without and 76% (±9) with ddAdo during priming. Ratio 1:25 gave 61% (±15) without and 77% (±9) with ddAdo.

[2] = Personal Communication; cited from earlier work
T lymphocyte = T lymphocyte proliferative response to HIV-specific protein (p24) in HIV seropositive subjects; assay type: cell-based, human; conditions: FIG. 11
Description: FIG. 11 is a graph showing T lymphocyte proliferative response in HIV seropositive subjects to a specific recall antigen (Candida albicans) and to an HIV-specific protein (p24) before and after ddAdo treatment.

PBMC = assay: Proliferative response to PHA after preincubation with HIV components; assay type: cell-based, human; conditions: HIV components 1 hour, wash, ddAdo 10 minutes, 5 of 5 experiments, FIG. 7
Protocol: (§2) Proliferative assays were performed as previously described (see, for example, Hofmann, B., et al., Cell Immunol (1989) 121:336-48. Briefly, one microcurie ^3H-thymidine was added to cultures 72 hours after stimulation, and after further 24 hours, all cultures were harvested on glass fiber filters with an automatic harvesting machine (Skatron, Lierbyen, Norway), and the incorporated radioactivity was measured in a liquid scintillation counter (Beckman LS 1800) after an addition of 1.5 ml scintillation fluid.
HIV components were added to PBMC for 1 hour followed by washing and then treating the cells with dideoxyadenosine (ddAdo) for 10 minutes, again followed by washing. Under these circumstances, the proliferative response to PHA could be restored (FIG. 7).

Raji cells = assay: Cytotoxic T-cell 51Cr-release assay against Raji cells; assay type: cell-based, human
Protocol: Cytotoxic T-cells from HIV seropositive subjects “regained” their normal ability to lyse allogenic tumor cell line in the presence of ddAdo as shown in FIG. 10B. In this experiment, ddAdo was added either during the six days of generation/priming (middle column of FIG. 10B) or during the three hour cytotoxic assay (right column of FIG. 10B). The cytotoxic assay used was a standard assay. Briefly, 10^6 PBMC were primed and irradiated (3000 Rad) Raji B-lymphoblastoid cells (8:1 ratio) for six days and added to triplicates of ^51Cr-labeled target Raji cells in effector target ratios from 6.25 to 50. ^51Cr released to the supernatant was measured in a gamma counter. Percentage of specific ^51Cr-release was calculated as 100×(released by PBMC−spontaneous release)/(maximum release with Triton X−spontaneous release). ddAdo was added in concentrations of 10 or 100 ng/ml either during priming or lysis.

[3] = system: PBMC from HIV seronegative controls; assay: Proliferative response to Candida albicans, HIV seronegative controls; assay type: cell-based, human; conditions: seven HIV seronegative controls; without ddAdo 6600 (±2000)
Protocol: as §1

[4] = system: PBMC from HIV seropositive donors; assay: Immunoglobulin / anti-HIV antibody production by PBMC from HIV seropositive donors; assay type: cell-based, human; conditions: 10 days
Protocol: Immunoglobulin production by B-cells is regulated by T-cells; CD4 provides “help” for de novo synthesis and CD8 suppresses immunoglobulin production. In HIV infection, increased total immunoglobulin production with a decrease in certain specific HIV antibodies to HIV GAG proteins during infection is a common finding (Lange, et al. AIDS (1987) 1:155-9). In this experiment, 10^6 PBMC from HIV seropositive donors were incubated in 1 ml cultures with and without ddAdo (1-100 ng/ml) for 10 days. IgG and anti-HIV antibodies in supernatant were measured by ELISA. p24 binding capacity was measured with a kit from DuPont following the manufacturer's protocol. Addition of ddAdo to cultures of PBMC from HIV seropositive subjects restored production of specific antibodies to p24 (Table 3). An effect of ddAdo on T-cells has been shown above but a possible direct effect on B-cells cannot be ruled out.
Addition of ddAdo to cultures of PBMC from HIV seropositive subjects increased spontaneous anti-p24 antibodies in individuals with none/low spontaneous production (p24 is an HIV core protein). One million PBMC from HIV seropositive donors were incubated in 1 ml cultures with and without ddAdo (1-100 ng/ml) for 10 days. IgG10 and production of anti-HIV antibodies to p24 in supernatants were measured by ELISA. p24 binding capacity was measured with a kit from DuPont (Delaware) following the manufacturer's protocol.

[5] = system: PBMC from an HIV seropositive subject; assay: Proliferative response to PHA of PBMC from HIV seropositive subjects; assay type: cell-based, human
Protocol: as §2

C[C@H]1O[C@@H](n2cnc3c(N)ncnc32)C[C@@H]1O [ddAdo, 2′,5′ dideoxyadenosine]
Responses to Candida albicans (mean and SEM) ([1]; 14 HIV seropositive subjects, increased from 2900 (±1300)): 6100 (±1600) cpm | Responses to Candida albicans ([1]; some HIV seropositive subjects, increased from less than 1000 cpm, FIG. 10A): about 10,000 cpm | Antiviral effect [2]: no antiviral effect | T lymphocyte responses directed against HIV (T lymphocyte): restores/increases | Proliferative response to PHA (PBMC): restored | Ability of cytotoxic T-cells from HIV seropositive subjects to lyse allogenic tumor cell line (Raji cells; 10 or 100 ng/ml during priming or lysis, FIG. 10B): regained | Effect on target lysis by HIV seronegative cells (Raji cells; HIV seronegative subjects): minimal effect | Target lysis (specific ^51Cr-release) (Raji cells; Ratio 1:12, ddAdo during priming, without 48% (±12)): 76% | Target lysis (specific ^51Cr-release) (Raji cells; Ratio 1:25, without 61% (±15)): 77% | Responses to Candida albicans [3]: 7600 (±1.9) cpm | p24 Binding Capacity ([4]; Patient 1, none 0): 14 pg/mL | IgG ([4]; Patient 1, none 326): 367 µg/mL | Anti-HIV Ab ([4]; Patient 1, none .5910): .5300 OD | p24 Binding Capacity ([4]; Patient 2, none 0): 16 pg/mL | IgG ([4]; Patient 2, none 98): 89 µg/mL | Anti-HIV Ab ([4]; Patient 2, none .1320): .1940 OD | p24 Binding Capacity ([4]; Patient 3, none 0): 88 pg/mL | Anti-HIV Ab ([4]; Patient 3, none 1.1390): 1.0820 OD | IgG ([4]; Patient 3, none 366): 309 µg/mL | p24 Binding Capacity ([4]; Patient 4, none 25): 49 pg/mL | IgG ([4]; Patient 4, none 123): 142 µg/mL | Anti-HIV Ab ([4]; Patient 4, none .2000): .1640 OD | p24 Binding Capacity ([4]; Patient 5, none 41): 32 pg/mL | IgG ([4]; Patient 5, none 55): 192 µg/mL | Anti-HIV Ab ([4]; Patient 5, none .1480): .1360 OD | p24 Binding Capacity ([4]; Patient 6, none 60): 50 pg/mL | IgG ([4]; Patient 6, none 76): 80 µg/mL | Anti-HIV Ab ([4]; Patient 6, none .0330): .0330 OD | IgG ([4]; Patient 7, none 244): 145 µg/mL | p24 Binding Capacity ([4]; Patient 7, none 376): 418 pg/mL | Anti-HIV Ab ([4]; Patient 7, none .0570): .2990 OD | IgG ([4]; Patient 8, none 143): 170 µg/mL | p24 Binding Capacity ([4]; Patient 8, none 1540): 1560 pg/mL | Anti-HIV Ab ([4]; Patient 8, none .4860): .3900 OD | Proliferative response to PHA [5]: improved
